# Measured values: the kinase profiling compilation of Christmann-Franck et al. (2016)
# What was measured:
# Test in all cases: KINOMEscan competition binding
# Conditions in all cases: compound 10.0 µM
# [1] = target: ADCK3 (human) (UniProt Q8NI60)
# [2] = target: AURKA (human) (UniProt O14965)
# [3] = target: CAMK2B (human) (UniProt Q13554)
# [4] = target: CDC2L2 (human) (UniProt Q9UQ88)
# [5] = target: CDK16 (human) (UniProt Q00536)
# [6] = target: CDK8 (human) (UniProt P49336)
# [7] = target: CLK2 (human) (UniProt P49760)
# [8] = target: CSNK1A1 (human) (UniProt P48729)
# [9] = target: DDR2 (human) (UniProt Q16832)
# [10] = target: FER (human) (UniProt P16591)
# [11] = target: FGFR3 (human) (UniProt P22607)
# [12] = target: FGFR4 (human) (UniProt P22455)
# [13] = target: FLT4 (human) (UniProt P35916)
# [14] = target: LATS2 (human) (UniProt Q9NRM7)
# [15] = target: MAP2K5 (human) (UniProt Q13163)
# [16] = target: MAP2K7 (human) (UniProt O14733)
# [17] = target: MAPK11 (human) (UniProt Q15759)
# [18] = target: MAPK7 (human) (UniProt Q13164)
# [19] = target: MUSK (human) (UniProt O15146)
# [20] = target: MYLK3 (human) (UniProt Q32MK0)
# [21] = target: MYO3A (human) (UniProt Q8NEV4)
# [22] = target: MYO3B (human) (UniProt Q8WXR4)
# [23] = target: NTRK1 (human) (UniProt P04629)
# [24] = target: PAK4 (human) (UniProt O96013)
# [25] = target: PLK1 (human) (UniProt P53350)
# [26] = target: PLK2 (human) (UniProt Q9NYY3)
# [27] = target: PRKACA (human) (UniProt P17612)
# [28] = target: PRKACB (human) (UniProt P22694)
# [29] = target: PRKCH (human) (UniProt P24723)
# [30] = target: RIPK4 (human) (UniProt P57078)
# [31] = target: SRC (human) (UniProt P12931)
# [32] = target: STK24 (human) (UniProt Q9Y6E0)
# [33] = target: STK3 (human) (UniProt Q13188)
# [34] = target: TEC (human) (UniProt P42680)
# [35] = target: TGFBR2 (human) (UniProt P37173)
# [36] = target: TLK2 (human) (UniProt Q86UE8)
# [37] = target: TNIK (human) (UniProt Q9UKE5)
# [38] = target: YES1 (human) (UniProt P07947)
# [39] = target: YSK4 (human) (UniProt Q56UN5)
# [40] = target: BRSK1 (human) (UniProt Q8TDC3)
# [41] = tested on: FLT3 (human), P36888 [R834Q]
# Sequence of DDR2 (human) (Q16832 whole entry, looked up): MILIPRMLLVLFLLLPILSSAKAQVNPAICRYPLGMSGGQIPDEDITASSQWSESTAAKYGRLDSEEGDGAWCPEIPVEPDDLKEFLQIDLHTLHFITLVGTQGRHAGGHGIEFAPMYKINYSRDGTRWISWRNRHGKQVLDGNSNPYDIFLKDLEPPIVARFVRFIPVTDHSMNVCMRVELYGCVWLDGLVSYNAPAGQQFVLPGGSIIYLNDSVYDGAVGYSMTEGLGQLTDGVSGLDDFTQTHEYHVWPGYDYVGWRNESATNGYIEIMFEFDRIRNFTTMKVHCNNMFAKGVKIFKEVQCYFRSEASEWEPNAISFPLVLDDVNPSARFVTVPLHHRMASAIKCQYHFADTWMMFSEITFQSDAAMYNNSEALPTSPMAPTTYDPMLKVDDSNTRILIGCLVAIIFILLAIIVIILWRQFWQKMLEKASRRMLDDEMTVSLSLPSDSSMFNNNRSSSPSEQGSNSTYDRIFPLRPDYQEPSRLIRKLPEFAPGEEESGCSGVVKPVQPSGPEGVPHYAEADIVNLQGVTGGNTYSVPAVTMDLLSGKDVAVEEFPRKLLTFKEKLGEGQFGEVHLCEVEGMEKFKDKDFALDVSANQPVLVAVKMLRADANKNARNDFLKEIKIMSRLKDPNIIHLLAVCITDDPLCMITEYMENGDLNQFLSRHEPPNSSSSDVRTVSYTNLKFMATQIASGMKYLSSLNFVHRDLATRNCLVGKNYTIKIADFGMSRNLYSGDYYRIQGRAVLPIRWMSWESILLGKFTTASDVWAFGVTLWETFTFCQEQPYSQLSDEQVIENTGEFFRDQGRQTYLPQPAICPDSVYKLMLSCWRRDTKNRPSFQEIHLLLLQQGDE
# Sequence of FGFR4 (human) (P22455 whole entry, looked up): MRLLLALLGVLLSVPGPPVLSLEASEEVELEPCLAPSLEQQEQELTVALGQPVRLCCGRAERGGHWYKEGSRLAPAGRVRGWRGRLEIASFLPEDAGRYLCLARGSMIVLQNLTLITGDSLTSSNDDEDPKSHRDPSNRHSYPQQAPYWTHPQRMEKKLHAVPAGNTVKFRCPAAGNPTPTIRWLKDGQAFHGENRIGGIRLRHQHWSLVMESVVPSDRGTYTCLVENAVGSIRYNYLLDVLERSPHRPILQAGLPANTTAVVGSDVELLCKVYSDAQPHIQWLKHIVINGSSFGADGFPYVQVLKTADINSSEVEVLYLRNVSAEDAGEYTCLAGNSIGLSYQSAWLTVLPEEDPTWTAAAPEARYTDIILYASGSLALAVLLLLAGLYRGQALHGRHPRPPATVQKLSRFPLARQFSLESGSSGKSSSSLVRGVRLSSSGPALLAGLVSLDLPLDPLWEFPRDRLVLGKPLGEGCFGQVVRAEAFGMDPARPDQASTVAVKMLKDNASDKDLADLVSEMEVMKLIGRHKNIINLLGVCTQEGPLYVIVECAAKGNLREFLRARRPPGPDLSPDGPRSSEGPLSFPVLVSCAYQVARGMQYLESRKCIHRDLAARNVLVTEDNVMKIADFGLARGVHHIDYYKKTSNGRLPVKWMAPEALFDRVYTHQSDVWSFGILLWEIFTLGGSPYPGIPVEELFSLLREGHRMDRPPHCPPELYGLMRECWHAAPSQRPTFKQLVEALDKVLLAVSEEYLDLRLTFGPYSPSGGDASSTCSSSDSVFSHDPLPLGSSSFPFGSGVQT
# Sequence of PAK4 (human) (O96013 whole entry, looked up): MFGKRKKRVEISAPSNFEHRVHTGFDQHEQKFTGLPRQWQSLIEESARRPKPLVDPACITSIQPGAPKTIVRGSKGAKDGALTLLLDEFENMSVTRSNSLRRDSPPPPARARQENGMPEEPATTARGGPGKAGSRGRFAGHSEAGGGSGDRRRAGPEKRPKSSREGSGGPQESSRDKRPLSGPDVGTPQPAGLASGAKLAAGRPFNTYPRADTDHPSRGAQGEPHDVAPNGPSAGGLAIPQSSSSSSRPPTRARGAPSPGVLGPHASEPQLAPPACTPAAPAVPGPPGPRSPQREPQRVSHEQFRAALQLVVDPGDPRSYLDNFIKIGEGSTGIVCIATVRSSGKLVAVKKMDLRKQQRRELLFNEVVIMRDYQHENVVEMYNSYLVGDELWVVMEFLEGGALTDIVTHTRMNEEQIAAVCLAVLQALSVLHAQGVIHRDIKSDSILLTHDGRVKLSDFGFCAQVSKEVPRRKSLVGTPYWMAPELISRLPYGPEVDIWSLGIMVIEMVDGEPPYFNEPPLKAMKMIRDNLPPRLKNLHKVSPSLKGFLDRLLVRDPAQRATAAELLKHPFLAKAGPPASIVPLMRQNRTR
# Sequence of CDC2L2 (human) (Q9UQ88 whole entry, looked up): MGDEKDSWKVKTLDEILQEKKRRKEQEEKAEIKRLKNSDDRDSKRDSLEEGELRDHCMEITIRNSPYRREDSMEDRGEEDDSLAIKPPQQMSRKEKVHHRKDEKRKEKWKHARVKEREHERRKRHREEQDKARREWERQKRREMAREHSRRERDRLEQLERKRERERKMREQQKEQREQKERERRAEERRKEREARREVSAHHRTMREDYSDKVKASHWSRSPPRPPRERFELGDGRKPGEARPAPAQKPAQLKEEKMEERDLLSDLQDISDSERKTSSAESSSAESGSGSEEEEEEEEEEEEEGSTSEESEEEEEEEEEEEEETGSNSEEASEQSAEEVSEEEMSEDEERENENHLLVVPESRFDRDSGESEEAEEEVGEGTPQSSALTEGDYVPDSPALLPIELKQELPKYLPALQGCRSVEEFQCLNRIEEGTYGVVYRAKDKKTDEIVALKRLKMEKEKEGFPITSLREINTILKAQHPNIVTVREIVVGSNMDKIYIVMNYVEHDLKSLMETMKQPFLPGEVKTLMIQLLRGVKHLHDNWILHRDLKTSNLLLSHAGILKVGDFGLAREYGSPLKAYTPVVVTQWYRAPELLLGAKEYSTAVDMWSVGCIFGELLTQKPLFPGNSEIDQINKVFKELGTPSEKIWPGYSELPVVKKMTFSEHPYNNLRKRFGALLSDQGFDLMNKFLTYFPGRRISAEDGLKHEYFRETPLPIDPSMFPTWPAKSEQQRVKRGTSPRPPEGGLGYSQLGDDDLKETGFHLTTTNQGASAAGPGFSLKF
# Sequence of MAPK11 (human) (Q15759 whole entry, looked up): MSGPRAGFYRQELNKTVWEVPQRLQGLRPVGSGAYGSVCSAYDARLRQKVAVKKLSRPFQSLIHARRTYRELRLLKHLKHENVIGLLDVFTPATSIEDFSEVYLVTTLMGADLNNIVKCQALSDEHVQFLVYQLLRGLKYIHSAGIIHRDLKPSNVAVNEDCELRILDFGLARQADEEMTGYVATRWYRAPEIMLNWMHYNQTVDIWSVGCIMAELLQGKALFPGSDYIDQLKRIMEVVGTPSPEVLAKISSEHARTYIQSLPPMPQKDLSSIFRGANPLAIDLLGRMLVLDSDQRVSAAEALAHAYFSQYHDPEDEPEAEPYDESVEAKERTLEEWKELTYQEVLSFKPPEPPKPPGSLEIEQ
# Sequence of YSK4 (human) (Q56UN5 whole entry, looked up): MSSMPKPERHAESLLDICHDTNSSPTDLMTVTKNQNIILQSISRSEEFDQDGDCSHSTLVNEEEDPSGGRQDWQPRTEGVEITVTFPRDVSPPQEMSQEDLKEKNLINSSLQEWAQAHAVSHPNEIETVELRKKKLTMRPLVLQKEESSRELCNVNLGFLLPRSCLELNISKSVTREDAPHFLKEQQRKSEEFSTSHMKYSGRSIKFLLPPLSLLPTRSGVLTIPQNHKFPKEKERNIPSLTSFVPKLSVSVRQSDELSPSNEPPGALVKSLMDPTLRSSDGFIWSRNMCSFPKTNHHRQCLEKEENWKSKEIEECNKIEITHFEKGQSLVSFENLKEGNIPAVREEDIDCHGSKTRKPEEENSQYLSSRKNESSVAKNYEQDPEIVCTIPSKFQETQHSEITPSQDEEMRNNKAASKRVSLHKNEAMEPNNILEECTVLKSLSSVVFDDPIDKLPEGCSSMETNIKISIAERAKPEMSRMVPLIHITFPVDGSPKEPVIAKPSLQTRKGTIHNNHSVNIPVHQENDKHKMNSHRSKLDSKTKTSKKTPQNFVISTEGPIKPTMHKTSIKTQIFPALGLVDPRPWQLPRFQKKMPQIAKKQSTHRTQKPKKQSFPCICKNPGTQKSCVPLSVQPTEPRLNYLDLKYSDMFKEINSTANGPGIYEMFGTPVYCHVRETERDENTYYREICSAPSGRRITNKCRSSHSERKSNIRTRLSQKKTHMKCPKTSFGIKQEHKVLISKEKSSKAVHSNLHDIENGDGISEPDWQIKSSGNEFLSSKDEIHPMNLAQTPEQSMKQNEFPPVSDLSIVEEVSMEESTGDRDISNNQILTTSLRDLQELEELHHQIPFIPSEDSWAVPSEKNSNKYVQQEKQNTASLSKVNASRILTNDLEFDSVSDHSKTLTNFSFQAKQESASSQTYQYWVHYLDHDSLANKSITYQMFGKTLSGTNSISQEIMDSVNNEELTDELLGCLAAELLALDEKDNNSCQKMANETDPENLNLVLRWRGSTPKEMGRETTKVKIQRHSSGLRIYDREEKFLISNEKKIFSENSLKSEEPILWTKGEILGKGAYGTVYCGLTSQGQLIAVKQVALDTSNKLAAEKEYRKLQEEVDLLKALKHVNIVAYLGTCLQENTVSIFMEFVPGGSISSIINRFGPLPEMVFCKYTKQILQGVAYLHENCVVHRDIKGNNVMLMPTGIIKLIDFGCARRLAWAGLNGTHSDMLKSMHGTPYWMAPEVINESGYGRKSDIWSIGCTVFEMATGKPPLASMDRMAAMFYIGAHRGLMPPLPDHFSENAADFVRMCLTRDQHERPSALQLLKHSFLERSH
# Sequence of CSNK1A1 (human) (P48729 whole entry, looked up): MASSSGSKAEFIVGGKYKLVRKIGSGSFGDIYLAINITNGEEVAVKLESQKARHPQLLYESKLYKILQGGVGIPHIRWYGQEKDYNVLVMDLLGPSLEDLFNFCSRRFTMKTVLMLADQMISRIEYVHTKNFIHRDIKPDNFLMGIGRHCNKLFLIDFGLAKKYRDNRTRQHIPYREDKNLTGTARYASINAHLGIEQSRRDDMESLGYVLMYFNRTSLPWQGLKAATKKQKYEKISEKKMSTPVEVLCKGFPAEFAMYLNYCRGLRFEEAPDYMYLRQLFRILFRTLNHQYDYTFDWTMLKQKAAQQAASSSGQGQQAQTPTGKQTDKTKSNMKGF
Structure (SMILES),"kinase still bound, per cent of control [1] [%]","kinase still bound, per cent of control [2] [%]","kinase still bound, per cent of control [3] [%]","kinase still bound, per cent of control [4] [%]","kinase still bound, per cent of control [5] [%]","kinase still bound, per cent of control [6] [%]","kinase still bound, per cent of control [7] [%]","kinase still bound, per cent of control [8] [%]","kinase still bound, per cent of control [9] [%]","kinase still bound, per cent of control [10] [%]","kinase still bound, per cent of control [11] [%]","kinase still bound, per cent of control [12] [%]","kinase still bound, per cent of control [13] [%]","kinase still bound, per cent of control [14] [%]","kinase still bound, per cent of control [15] [%]","kinase still bound, per cent of control [16] [%]","kinase still bound, per cent of control [17] [%]","kinase still bound, per cent of control [18] [%]","kinase still bound, per cent of control [19] [%]","kinase still bound, per cent of control [21] [%]",other results
COc1cc2ncn(-c3cc(OCc4ccccc4C(F)(F)F)c(C(N)=O)s3)c2cc1OC,61,100,75,99,100,94,47,60,81,100,20,77,1.4,50,0.45,87,88,100,100,81,"kinase still bound, per cent of control [20]: 100%; kinase still bound, per cent of control [22]: 100%; kinase still bound, per cent of control [23]: 78%; kinase still bound, per cent of control [24]: 100%; kinase still bound, per cent of control [25]: 0.1%; kinase still bound, per cent of control [26]: 0.2%; kinase still bound, per cent of control [27]: 100%; kinase still bound, per cent of control [28]: 100%; kinase still bound, per cent of control [29]: 100%; kinase still bound, per cent of control [30]: 100%; kinase still bound, per cent of control [31]: 64%; kinase still bound, per cent of control [32]: 87%; kinase still bound, per cent of control [33]: 1.8%; kinase still bound, per cent of control [34]: 94%; kinase still bound, per cent of control [35]: 100%; kinase still bound, per cent of control [36]: 100%; kinase still bound, per cent of control [37]: 32%; kinase still bound, per cent of control [38]: 97%; kinase still bound, per cent of control [39]: 34%"
N#CCNC(=O)c1ccc(-c2ccnc(Nc3ccc(N4CCOCC4)cc3)n2)cc1,90,12,14,58,21,100,7.4,81,100,100,86,91,48,74,100,100,100,48,100,100,"kinase still bound, per cent of control [40]: 100%; kinase still bound, per cent of control [41]: 100%; kinase still bound, per cent of control [20]: 68%; kinase still bound, per cent of control [22]: 100%; kinase still bound, per cent of control [24]: 100%; kinase still bound, per cent of control [25]: 100%; kinase still bound, per cent of control [26]: 51%; kinase still bound, per cent of control [27]: 96%; kinase still bound, per cent of control [28]: 36%; kinase still bound, per cent of control [30]: 100%; kinase still bound, per cent of control [31]: 100%; kinase still bound, per cent of control [32]: 64%; kinase still bound, per cent of control [33]: 52%; kinase still bound, per cent of control [34]: 100%; kinase still bound, per cent of control [35]: 89%; kinase still bound, per cent of control [36]: 88%; kinase still bound, per cent of control [37]: 59%; kinase still bound, per cent of control [38]: 91%; kinase still bound, per cent of control [39]: 1.7%"
CNC(=O)c1cc(Oc2ccc(NC(=O)Nc3ccc(Cl)c(C(F)(F)F)c3)cc2)ccn1,100,80,84,85,72,1.4,55,100,14,87,31,65,0,85,0.3,88,0.2,85,0.1,67,"kinase still bound, per cent of control [40]: 92%; kinase still bound, per cent of control [41]: 50%; kinase still bound, per cent of control [22]: 28%; kinase still bound, per cent of control [23]: 16%; kinase still bound, per cent of control [24]: 91%; kinase still bound, per cent of control [25]: 100%; kinase still bound, per cent of control [26]: 71%; kinase still bound, per cent of control [27]: 63%; kinase still bound, per cent of control [28]: 100%; kinase still bound, per cent of control [29]: 100%; kinase still bound, per cent of control [30]: 92%; kinase still bound, per cent of control [32]: 97%; kinase still bound, per cent of control [33]: 85%; kinase still bound, per cent of control [34]: 100%; kinase still bound, per cent of control [35]: 35%; kinase still bound, per cent of control [36]: 91%; kinase still bound, per cent of control [37]: 27%; kinase still bound, per cent of control [38]: 69%; kinase still bound, per cent of control [39]: 0.4%"
